# In patent US20190336489A1, “NON PEPTIDE HETEROBIVALENT MOLECULES FOR TREATING INFLAMMATORY DISEASES” (GLAXOSMITHKLINE INTELLECTUAL PROPERTY DEVELOPMENT LIMITED, priority 2017, published 2019):
# Read-outs that look alike come from different tables or passages of the source. Marks after values point to notes of the source that are not given here.
# Molecular target: T1, CCR2 (Homo sapiens, UniProt P41597)
# T1 construct: expressed in transfected cells; host or cells: CHOK1
# Assay: Antibody Dependent Cellular Cytotoxicity (ADCC) reporter assay, CCR2 target cells
# Format: cell-based
# Conditions: for ADCC efficacy: maximum signal:background (S/B)
# From the text: The compounds described herein have been characterized in an ADCC reporter assay (see Section 1.2 ADCC reporter for protocol). […] Furthermore, the assay also confirms that this formed complex can engage and activate the Fc receptors on immune cells. Lastly, the assay provides both potency (EC50) and efficacy (signal to background ratio) for each compound in a dose dependant manner.
# This assay has four components • 1) Heterobivalent Compound consisting of a targeting ligand and a hapten connected by a linker (ranging from 10 uM-1 pM) • 2) A hapten antibody with functional Fc domain (typical concentrations are 0.01 ug/mL-200 ug/mL) • 3) Target cells—CHOK1 cells engineered to overexpress either CCR1, CCR2, or CCR3, or CEMNKR cells engineered to overexpress CCR5 (typically 1000-20,000 cells per well) • 4) Reporter cells—Jurkat cells engineered to express FcgRIIIa (ADCC reporter assay) and with a reporter gene (luciferase) under the control of the NFAT promoter (typically 3000-75,000 cells per well)
# Reagents are combined in final volume of 20 uL in 384-well tissue culture treated plated.
# All components are incubated together for ˜12-18 hours. Add BioGlo Detection reagent (from Promega) to lyse the cells and provide substrate for the luciferase reporter protein. Signal is measured on a microplate reader capable of measuring luminescence. Signal:Background is calculated by dividing the signal of a test well by the signal obtained when no compound is included in the assay. EC50 calculations were done using Graphpad Prism Software, specifically a nonlinear regression curve fit (Y=Bottom+(Top−Bottom)/(1+10^((Log EC50−X)*HillSlope)))
# [1] = CHOK1 cells overexpressing CCR2, Jurkat FcgRIIIa NFAT-luciferase reporter cells, EC50 class
# [2] = CHOK1 cells overexpressing CCR2
# [3] = CHOK1 cells overexpressing CCR2, Jurkat FcgRIIIa NFAT-luciferase reporter cells, EC50 class, read-out: ADCC potency
# T1 sequence (P41597 whole entry, species assumed): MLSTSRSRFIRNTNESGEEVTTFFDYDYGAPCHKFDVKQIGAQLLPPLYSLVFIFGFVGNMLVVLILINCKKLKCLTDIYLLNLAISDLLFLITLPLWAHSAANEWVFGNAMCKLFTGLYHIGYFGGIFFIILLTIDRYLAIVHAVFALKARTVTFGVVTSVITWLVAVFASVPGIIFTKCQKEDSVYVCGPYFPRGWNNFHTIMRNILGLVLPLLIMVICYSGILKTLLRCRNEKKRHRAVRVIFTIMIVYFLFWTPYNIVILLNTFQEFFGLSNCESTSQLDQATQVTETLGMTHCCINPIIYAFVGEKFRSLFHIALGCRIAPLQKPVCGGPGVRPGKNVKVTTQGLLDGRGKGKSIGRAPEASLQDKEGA
Compound,ADCC potency [1],ADCC efficacy [2],EC50 [3],EC50
"O=C(NCC(=O)N1CC[C@H](NC2CCC(O)(c3ccc(-c4ncccn4)cn3)CC2)C1)c1cc(OCCOCCOCCOCCOCCOCCOCCOCCOCCOCCNc2ccc([N+](=O)[O-])cc2[N+](=O)[O-])cc(C(F)(F)F)c1 (single isomer, unassigned) [Compound 16]",+++ (pEC50 ≥ 9 = +++),++^e (>5 = ++),,
"O=C(NCC(=O)N1CC[C@H](NC2CCC(O)(c3ccc(-c4ncccn4)cn3)CC2)C1)c1cc(OCCOCCOCCOCCOCCOCCOCCOCCOCCOCCNc2ccc([N+](=O)[O-])cc2[N+](=O)[O-])cc(C(F)(F)F)c1 (single isomer, unassigned) [Compound 17]",+++ (pEC50 ≥ 9 = +++),+++^e (Maximum Signal:Background > 10 = +++),,
"CC(C)(C)N1CCNC(C(=O)N2CCN(C(=O)Nc3ccc(Cl)c(F)c3)C(CCOC(=O)NCCOCCOCCOCCOCCOCCOCCOCCOCCOCCNc3ccc([N+](=O)[O-])cc3[N+](=O)[O-])C2)C1 (single isomer, unassigned) [Compound 19, 2-(4-(4-(Tert-butyl)piperazine-2-carbonyl)-1-((4-chloro-3-fluorophenyl)carbamoyl)piperazin-2-yl)ethyl (29-((2,4-dinitrophenyl)amino)-3,6,9,12,15,18,21,24,27-nonaoxanonacosyl)carbamate]",,+++^e (Maximum Signal:Background > 10 = +++),< 1 nM,
"CC(C)[C@]1(C(=O)N2CCc3nc(CCCCOc4ccc(C(=O)NCCOCCOCCOCCOCCOCCOCCOCCOCCOCCNc5ccc([N+](=O)[O-])cc5[N+](=O)[O-])cc4)c(C(F)(F)F)cc3C2)CC[C@@H](NC2CCOCC2)C1 [Compound 6, N-(29-((2,4-dinitrophenyl)amino)-3,6,9,12,15,18,21,24,27-nonaoxanonacosyl)-4-(4-(6-((1S,3R)-1-isopropyl-3-((tetrahydro-2H-pyran-4-yl)amino)cyclopentanecarbonyl)-3-(trifluoromethyl)-5,6,7,8-tetrahydro-1,6-naphthyridin-2-yl)butoxy)benzamide]",,+++^e (Maximum Signal:Background > 10 = +++),< 1 nM,
"CC(C)[C@]1(C(=O)N2CCc3nc(CCCCOc4cccc(C(=O)NCCOCCOCCOCCOCCOCCOCCOCCOCCOCCNc5ccc([N+](=O)[O-])cc5[N+](=O)[O-])c4)c(C(F)(F)F)cc3C2)CC[C@@H](NC2CCOCC2)C1 [Compound 7, N-(29-((2,4-dinitrophenyl)amino)-3,6,9,12,15,18,21,24,27-nonaoxanonacosyl)-3-(4-(6-((1S,3R)-1-isopropyl-3-((tetrahydro-2H-pyran-4-yl)amino)cyclopentanecarbonyl)-3-(trifluoromethyl)-5,6,7,8-tetrahydro-1,6-naphthyridin-2-yl)butoxy)benzamide]",,+++^e (Maximum Signal:Background > 10 = +++),< 1 nM,
"Cc1ccc2c(c1)NC[C@]21CCN(C[C@@H](O)C2CCN(C(=O)c3cc4cc(OCCOCCOCCOCCNC(=O)CCC(=O)NCCOCCOCCOCCNc5ccc([N+](=O)[O-])cc5[N+](=O)[O-])ccc4[nH]3)CC2)C[C@H]1C [Compound 8, N1-(2-(2-(2-(2-((2-(4-((S)-2-((3S,3′S)-3′,6-Dimethylspiro[indoline-3,4′-piperidin]-1′-yl)-1-hydroxyethyl)piperidine-1-carbonyl)-1H-indol-5-yl)oxy)ethoxy)ethoxy)ethoxy)ethyl)-N4-(2-(2-(2-(2-((2,4-dinitrophenyl)amino)ethoxy)ethoxy)ethoxy)ethyl)succinamide]",,+++^e (Maximum Signal:Background > 10 = +++),10 to 100 nM,
"Cc1ccc2c(c1)NC[C@]21CCN(C[C@@H](O)C2CCN(C(=O)/C=C/c3cc(F)cc(OCCOCCOCCOCCOCCOCCOCCOCCOCCOCCNc4ccc([N+](=O)[O-])cc4[N+](=O)[O-])c3)CC2)C[C@H]1C [Compound 9, (E)-1-(4-((S)-2-((3S,3′S)-3′,6-Dimethylspiro[indoline-3,4′-piperidin]-1′-yl)-1-hydroxyethyl)piperidin-1-yl)-3-(3-((29-((2,4-dinitrophenyl)amino)-3,6,9,12,15,18,21,24,27-nonaoxanonacosyl)oxy)-5-fluorophenyl)prop-2-en-1-one]",,+++^e (Maximum Signal:Background > 10 = +++),< 1 nM,
"Cc1ccc2c(c1)NC[C@]21CCN(C[C@@H](O)C2CCN(C(=O)c3cc4cc(Oc5ccc(C(=O)NCCOCCOCCOCCOCCOCCOCCOCCOCCOCCNc6ccc([N+](=O)[O-])cc6[N+](=O)[O-])cc5)ccc4[nH]3)CC2)C[C@H]1C [Compound 10, 4-((2-(4-((S)-2-((3S,3′S)-3′,6-Dimethylspiro[indoline-3,4′-piperidin]-1′-yl)-1-hydroxyethyl)piperidine-1-carbonyl)-1H-indol-5-yl)oxy)-N-(29-((2,4-dinitrophenyl)amino)-3,6,9,12,15,18,21,24,27-nonaoxanonacosyl)benzamide]",,+++^e (Maximum Signal:Background > 10 = +++),1 to 10 nM,
"Cc1ccc2c(c1)NC[C@]21CCN(C[C@@H](O)C2CCN(c3ncc(-c4cccc(C(=O)NCCOCCOCCOCCOCCOCCOCCOCCOCCOCCNc5ccc([N+](=O)[O-])cc5[N+](=O)[O-])c4)o3)CC2)C[C@H]1C [Compound 11, 3-(2-(4-((S)-2-((3S,3′S)-3′,6-Dimethylspiro[indoline-3,4′-piperidin]-1′-yl)-1-hydroxyethyl)piperidin-1-yl)oxazol-5-yl)-N-(29-((2,4-dinitrophenyl)amino)-3,6,9,12,15,18,21,24,27-nonaoxanonacosyl)benzamide]",,+++^e (Maximum Signal:Background > 10 = +++),10 to 100 nM,
"Cc1ccc2c(c1)NC[C@]21CCN(C[C@@H](O)C2CCN(C(=O)c3cc4ccc(Oc5ccc(C(=O)NCCOCCOCCOCCOCCOCCOCCOCCOCCOCCNc6ccc([N+](=O)[O-])cc6[N+](=O)[O-])cc5)cc4[nH]3)CC2)C[C@H]1C [Compound 12, 4-((2-(4-((S)-2-((3S,3′S)-3′,6-Dimethylspiro[indoline-3,4′-piperidin]-1′-yl)-1-hydroxyethyl)piperidine-1-carbonyl)-1H-indol-6-yl)oxy)-N-(29-((2,4-dinitrophenyl)amino)-3,6,9,12,15,18,21,24,27-nonaoxanonacosyl)benzamide]",,+++^e (Maximum Signal:Background > 10 = +++),< 1 nM,
"Cc1ccc2c(c1)NC[C@]21CCN(C[C@@H](O)C2CCN(C(=O)c3cc4ccc(OCCOCCOCCOCCNC(=O)CCC(=O)NCCOCCOCCOCCNc5ccc([N+](=O)[O-])cc5[N+](=O)[O-])cc4[nH]3)CC2)C[C@H]1C [Compound 13, N1-(2-(2-(2-(2-((2-(4-((S)-2-((3S,3′S)-3′,6-Dimethylspiro[indoline-3,4′-piperidin]-1′-yl)-1-hydroxyethyl)piperidine-1-carbonyl)-1H-indol-6-yl)oxy)ethoxy)ethoxy)ethoxy)ethyl)-N4-(2-(2-(2-(2-((2,4-dinitrophenyl)amino)ethoxy)ethoxy)ethoxy)ethyl)succinamide]",,+++^e (Maximum Signal:Background > 10 = +++),,1 to 10 nM
"Cc1ccc2c(c1)NC[C@]21CCN(C[C@@H](O)C2CCN(C(=O)c3cc4c(OCCOCCOCCOCCNC(=O)CCC(=O)NCCOCCOCCOCCNc5ccc([N+](=O)[O-])cc5[N+](=O)[O-])cccc4[nH]3)CC2)C[C@H]1C [Compound 14, N1-(2-(2-(2-(2-((2-(4-((S)-2-((3S,3′S)-3′,6-dimethylspiro[indoline-3,4′-piperidin]-1′-yl)-1-hydroxyethyl)piperidine-1-carbonyl)-1H-indol-4-yl)oxy)ethoxy)ethoxy)ethoxy)ethyl)-N4-(2-(2-(2-(2-((2,4-dinitrophenyl)amino)ethoxy)ethoxy)ethoxy)ethyl)succinamide]",,++^e (>5 = ++),,100 to 1000 nM
"Cc1ccc2c(c1)NC[C@]21CCN(C[C@@H](O)C2CCN(C(=O)c3cc4ccc(Oc5ccc(C(=O)N6CCN(CCCNc7ccc([N+](=O)[O-])cc7[N+](=O)[O-])CC6)cc5)cc4[nH]3)CC2)C[C@H]1C [Compound 15, (4-((S)-2-((3S,3′S)-3′,6-Dimethylspiro[indoline-3,4′-piperidin]-1′-yl)-1-hydroxyethyl)piperidin-1-yl)(6-(4-(4-(3-((2,4-dinitrophenyl)amino)propyl)piperazine-1-carbonyl)phenoxy)-1H-indol-2-yl)methanone]",,+++^e (Maximum Signal:Background > 10 = +++),1 to 10 nM,
